In the assay the test system is bovine embryos. Description: Example 9: L-NAME (1 or 1000 nM) added to mBECM containing serum and Hb, pre-hatching development. In kind it is cell-based. More on the design: key to Least square mean of embryos developed to 16-cell / Least square mean of embryos developed to Blastocyst / Least square mean of embryos developed to 2-cell / Least square mean of embryos developed to 8-cell / Least square mean of embryos developed to Morula: fraction developed; each embryo scored 1 = developed, 0 = not developed. The conditions noted are these: Hb 1 μg/ml, no L-NAME. On the procedure:
The basic medium used for maturation of oocytes was tissue culture medium (TCM)-199 with Earle's salts, buffered with 25 mM HEPES (Gibco BRL, Grand Island, N.Y.) and supplemented with 10% (v/v) heat-inactivated fetal bovine serum (FBS; Hyclone Laboratories, Logan, Utah), 1 μg/ml estradiol-17β (NOBL Laboratories, Sioux Center, Iowa), 3 μg/ml bovine FSH (NOBL Laboratories), 6 μg/ml bovine LH (NOBL Laboratories), and 25 μg/ml gentamycin (Sigma Chemical Co., St. Louis, Mo.). The basic medium used for treatment of spermatozoa and fertilization of oocytes was a modified Tyrode's medium (J. Parrish et al., Capacitation of bovine sperm by heparin. Biol. Reprod. 38:1171-1180 (1988)), supplemented with 0.25 mM sodium pyruvate (Gibco BRL), 6 mg/ml fatty acid (FA)-free BSA (No. A-6003, Sigma), 15 μg/ml calcium heparin from porcine intestinal mucosa (183 USP/mg; H-8398, Sigma), and 25 μg/ml gentamycin. Modified bovine embryo culture medium (mBECM) containing 10 μM β-mercaptoethanol was used for culture of embryos, as described in J. Lim et al., “Roles of growth factors in the development of bovine embryos fertilized in vitro and cultured singly in a defined medium,” Reprod. Fertil. Dev., 8:1199-1205 (1996). mBECM supplemented with 10% (v/v) FBS was used for co-culturing inseminated oocytes with CGC. Osmolarity of the medium was maintained within the range of 265-290 mOsm.
All cumulus-oocyte complexes (COC) were collected in Madison, Wis. (BOMED, Inc.) and were shipped in 2 ml of maturation medium in a battery powered incubator via overnight express mail service. Oocytes matured during transit and arrived within 24 h after exposure to maturation medium, pre-equilibrated at 39° C. in 5% CO2 in air. At 22 to 24 h after exposure to the medium, the COCs were inseminated in vitro as described in J. Lim et al., “Intracytoplasmic glutathione concentration and the role of β-mercaptoethanol in preimplantation development of bovine embryos,” Theriogenology, 46:429-439 (1996). At 18 h post-insemination, COCs were cultured in groups (28-40 embryos) in a 4-well multidish (Nunc, Roskilde, Denmark) containing 0.8-ml of mBECM. Embryos were dislodged from CGC at 36 to 48 h post-insemination.
In Example 9, IVF embryos were cultured in MBECM supplemented as follows: 1) no addition (control), 2) Hb (1 μg/ml), 3) Hb plus L-NAME (1 nM), and 4) Hb plus L-NAME (1000 nM). Embryonic development was evaluated up to 192 h post-insemination. A total of 384 oocytes were inseminated, and were randomly and equally allotted to 4 replicates.
Embryos developed to the 2-cell, 8-cell, 16-cell, morula, and blastocyst stages at the pertinent observation times were individually scored ‘1’ (developed). Embryos that had not developed to these stages at the same times were scored ‘0’ (non-developed). Sums of the scores at each stage of development were evaluated by analysis of variance using a general linear model (PROC-GLM) in the SAS statistical programming package (1991). In Example 8, the combined effects of Hb addition and month of oocyte collection were first examined in a 2×7 factorial arrangement. Overall differences in embryonic development in Hb-free and Hb-containing culture systems were further evaluated. […] Differences were regarded as statistically significant where P values were less than 0.05.

Experimental findings from US6864086B2, “Nitric oxide-scavenging system for culturing oocytes, embryos, or other cells” (Board of Supervisors of Louisiana State University and …, priority 1998, dated 2005) are described below.

Values joined by “and” are separate entries in the source; they are usually repeats but may differ in a detail not shown here. Equal values may be shown once.

hemoglobin [Hb]: the “Number of embryos developed to 2-cell” value (96 embryos, 48 h) was 68. In addition, the “Number of embryos developed to 8-cell” value (96 embryos, 60 h) is on record as 54. Besides, the “Number of embryos developed to 16-cell” value (96 embryos, 120 h) is recorded as 47. The “Number of embryos developed to Morula” value (96 embryos, 144 h) is on record as 35. In addition, the “Number of embryos developed to Blastocyst” value (96 embryos, 192 h) came out at 30. In addition, the “Least square mean of embryos developed to 2-cell” value (48 h) was determined as 0.708. Also, the “Least square mean of embryos developed to 8-cell” value (60 h) turned out to be 0.563. The “Least square mean of embryos developed to 16-cell” value (120 h) is 0.489. Moreover, for the setting “144 h”, the “Least square mean of embryos developed to Morula” value is reported as 0.365. Also, the “Least square mean of embryos developed to Blastocyst” value (192 h) was 0.312 and 0.313.
